From patent US8053415B2, “Compounds having RD targeting motifs” (Washington University in St. Louis, priority 2005, dated 2011)
Where a SMILES comes first, the peptide text is derived from it.

Key:
A549 and A427 cells = assay: Cellular internalization of cyclic cypate-RGD conjugates (Example 2); type: cell-based; details: 1 μM, 1 h, 37° C.
Description: A549 and A427 cells were purchased from ATCC and grown in […] tissue culture flasks or on Lab-Tek chambered slides in Ham's F12K medium with 2 mM L-glutamine supplemented with 1.5 g/L sodium bicarbonate, 10% fetal calf serum, 100 units/ml penicillin and 100 units/mL streptomycin.
Cells were grown to confluence on LabTek microscope slides. After washing with PBS, the cells were incubated with 1 μM of the target compounds for 1 h at 37° C. The medium was removed and the cells washed with PBS. The slides were mounted with anti-fading mounting medium. Cells were visualized with an Olympus microscope system (FV 1000) using 755 excitation and 845 nm emission filters.

A549 tumor = assay: In vivo fluorescence optical imaging and ex vivo organ distribution in A549 tumor-bearing nude mice; details: for blocking of Cyp-GRD uptake in the tumor by co-injection: equimolar, 0.3 μmol/kg body weight
Description: All in vivo studies were performed in compliance with the Washington University in St Louis Animal Study Committee's requirements for the care and use of laboratory animals in research. Nude mice (18-22 g) were anesthetized with xylazine/ketamine cocktail via intraperitoneal injection and placed in a supine position. The mice were injected subcutaneously with A549 cells (1×10^6) in the lower back of the mice. Tumor masses were palpable at 5-7 days post implant, which reached 5 mm in 10-15 days. Prior to injection of the probe, the mice were anesthetized as described above. A 29-gauge needle was used to inject the probes into the mouse via the lateral tail vein. The molecular probe (100 μL) was injected via the lateral tail vein at 0.3 μmol per kg of body weight. […] [SEQ ID NO:1] were constituted in a vial, and doses of 0.3 μmol per kg of body weight were injected into the A549 tumor-bearing mice.
A non-invasive in vivo continuous wave fluorescence imaging apparatus was used to visualize the distribution and preferential tissue uptake of the cypate-peptide molecular beacons in the nude mice (Achilefu (2004) Technol. Cancer Res. Treat. 3:393-409, incorporated herein by reference). Light from two laser diodes of nominal wavelength 780 nm and nominal power of 50 mW was launched into a fiber optic bundle. Two laser diodes were used to produce as much uniform illumination of the whole animal or organ parts as possible. The nominal 50 mW of incident power was reduced to about 44 mW at the output of the fiber optic bundle. A de-focusing lens in position after the bundle expanded the beam such that nearly the whole animal was illuminated. A Photometrics CCD camera (16 bit, 1024×1024 pixel, back illuminated, thermoelectric Peltier cooled with forced air) was used to capture the emitted photons. An interference filter (830 nm) was mounted in front of the CCD camera input lens such that only emitted fluorescent light from the contrast agent was imaged. Real-time acquisition, display and data processing software (WinView/32) was used to obtain the optical image. The samples were dissolved in 20% aqueous DMSO and animals were injected with doses of 0.3 μmol/kg body weight via the lateral tail vein. Injected volumes were 100 μL for each mouse. Data analysis consisted of subtracting (pixel by pixel) the pre-injection image from the post injection images, and displaying the false color results. Integration of the relative fluorescence intensities of tumor vs. surrounding tissues indicated the extent of selective uptake of the contrast agent. At the completion of the study, the mice were euthanized and some organ parts were excised and rinsed with water. The tissues were placed under the CCD camera and the fluorescence emission from each organ was measured after excitation with the 780 nm laser sources. Tissue parts, instead of whole organs, were used to minimize problems associated with depth-dependent non-linear fluorescence emission. A statistical program in the WinView package was used to estimate the mean fluorescence intensity per organ part.
In vivo optical imaging studies using the cypate-peptide optical probes were performed and analyzed as described above in Example 1. […]

A549 cells [1] = assay: Cell uptake, internalization and blocking of cypate-peptide conjugates (Example 3); type: cell-based, human
Description: The ABI-positive cells were incubated with cypate or cypate-peptide conjugates at 37° C. for different time points. A549 cells were grown as detailed above. The human glioblastoma cell line, U87, and the human embryonic kidney cell line, HEK, were purchased from ATTC. U87 and HEK cells were maintained in minimum essential medium (MEM) with 2 mM L-glutamine and Earle's BSS adjusted to contain 1.5 g/L sodium bicarbonate, 0.1 mM nonessential amino acids, and 1.0 mM sodium pyruvate, with 10% fetal calf serum, 100 units/mL penicillin, and 100 units/mL streptomycin. Cells were grown on Lab-Tek slides. The medium was replaced and cells were incubated for various times up to 4 h at 37° C. in the presence of 1 μM of the dye conjugated peptides. For fluorescence microscopy, cells were visualized with an Olympus BX61W1 microscope using 775/50 excitation, 845/55 emission. For subcellular localization studies, 25 nM mitotracker green or 50 nM lysotracker red from Molecular Probes (Eugene, Oreg.) was added during the last 15 min or 60 min of incubation, respectively. […] Relative fluorescence was determined for five different areas of each experimental condition using the Slidebook software, and the results were averaged. The average relative fluorescence for each condition was normalized to cells treated with Cyp-GRD peptide.

[2] = Absorption and emission spectral properties in 20% aqueous DMSO; type: physicochemical
Description: The spectral properties of cypate and the cypate-peptide conjugates were determined in 20% aqueous DMSO, which solubilizes all the compounds. […] Absorbance measurements were performed with a Beckman Coulter DU 640 spectrophotometer. The fluorescence spectra were recorded on Fluorolog-3 fluorometer (HORIBA Jobin Yvon Inc., Edison, N.J.). To prepare the stock solutions, a high precision analytical balance was used to weigh >2 mg of each compound, which was dissolved in DMSO. The DMSO solutions were then diluted with water to obtain a final solution of 20% aqueous DMSO. An aliquot (known volume) of the solution was transferred to a cuvette with 1 μL precision micropipettes and diluted with 20% aqueous DMSO solvent mixture to give a working solution that absorbs at <1.0 absorbance unit. Aliquots of the working solution were diluted with 20% aqueous DMSO and used to determine the molar absorptivity of each compound. For fluorescence measurements, probe solutions with 0.1 absorbance units were used to minimize inner filter effects.
Previous studies have shown that this solvent mixture boosts fluorescence intensity and is well tolerated by rodents. Additionally, the dyes and their peptide conjugates are soluble in this solvent mixture, providing a common medium for spectral measurements.
Absorbance spectra were measured on a Beckman Coulter DU 640 UV-Visible spectrophotometer. Fluorescence spectra were recorded on a HORIBA Jobin Yvon Fluorolog-3 fluorometer. Stock solutions (1.0 mM) of the conjugates were prepared by dissolving each sample in 80% aqueous DMSO. UV-Vis and fluorescence measurements were carried out by adding 5.0 μL of the stock solutions via a micropipette into 3 mL of 20% aqueous DMSO in a quartz cuvette.

[3] = biological target: T1, purified human αvβ3 integrin protein (Homo sapiens, UniProt P05106+P06756); assay: Competitive αvβ3 integrin receptor binding assay with 125I-echistatin tracer (Example 2); details: Table 3, read-out: IC50
T1 construct: purchased Chemicon International, Inc. (Temecula, Calif.)
Description: The binding affinities were measured based on the competitive binding between purified αvβ3 integrin (ABI) and peptide ligands. Echistatin is a polypeptide that binds irreversibly with high affinity and specificity to ABI. ^125I-echistatin was used as a tracer in ABI binding assays.
Receptor binding assays were performed by using purified human αvβ3 integrin protein from Chemicon International, Inc. (Temecula, Calif.). Assays were carried out using the Millipore Duropore membrane 96-well plates and the Millipore MultiScreen system (Bedford, Mass.). The 96-well membrane plate was blocked with 0.1% Polythylenimine blocking solution overnight at 4° C. ^125I-echistatin (50 nmol/L) was added to the binding buffer (50 mM Tris-HCl, pH 7.4, 100 mM NaCl, 2 mM CaCl2, 1 mM MgCl2, 1 mM MnCl2, 1% BSA) containing integrin protein (50 ng per well in 96-well membrane plate) and ligands in a total volume of 200 μL per well. The concentration range of ligand was between 0.01 μM and 100 μM. The mixtures were incubated for 2 h at room temperature, the ABI was then filtered by centrifugation at 1500 g and washed three times with 0.20 mL of ice-cold binding buffer. The filters containing radioactivity bound ABI were removed using a punch apparatus and counted using a Packard Cobra II Auto-gamma counter (Meriden, Conn.). […] Radiolabeling of ^125I-echistatin (Amersham Biosciences, Piscataway, N.J.) was carried out in a mixture of 0.25% BSA, 5.0% lactose, 0.21% citric acid and aprotinin (0.9 TIU/ml).

A549 cells [4] = assay: CyQuant cytotoxicity and proliferation assay; type: cell-based, human; details: 48 hours
Description: Cells were seeded at 2.5×10^4 cells/well and grown in 96 well plates in the presence of 0−1.5×10^−5 M cypate conjugated peptides for 24 or 48 hours. Cell proliferation was measured using the CyQuant proliferation assay from Molecular Probes (Eugene, Oreg.) per the manufacturer's protocol. Briefly, after incubation the microplate was inverted to remove the media and frozen at −70° C. overnight. The microplate was thawed at room temperature and 200 μL of the CyQuant GR dye/cell-lysis buffer was added to each well. […]
Because the Cyquant assay is based on the adherence of a dye to nucleic acids, the assay is a measure of both proliferative and cytotoxic effects.

Compound: CC(C)C[C@@H]1NC(=O)[C@H](CC(=O)O)NC(=O)CNC(=O)[C@H](CCCNC(=N)N)NC(=O)[C@@H](NC(=O)CCN2C(=CC=CC=CC=CC3=[N+](CCC(=O)O)c4ccc5ccccc5c4C3(C)C)C(C)(C)c3c2ccc2ccccc32)CSSC[C@@H](C(N)=O)NC1=O [Cypate-cyclo(CRGDLC)-NH2] (HELM PEPTIDE1{[CC1(C)C(/C=C/C=C/C=C/C=C2/N(CCC(=O)[*:2])c3ccc4ccccc4c3C2(C)C)=[N+](CCC(=O)O)c2ccc3ccccc3c21].C.R.G.D.L.C.[am]}$PEPTIDE1,PEPTIDE1,2:R3-7:R3$$$V2.0)
- cellular internalization (A549 and A427 cells): internalized by the cells much better than some of the other compounds

Compound: CC(C)[C@@H]1NC(=O)[C@@H](Cc2ccccc2)NC(=O)[C@H](CC(=O)O)NC(=O)CNC(=O)[C@H](CCCNC(=N)N)NC1=O [cyclo[RGDfV], reference compound]
- displacement of cypate-GRD from A549 tumor (A549 tumor; blocking peptide given 24 h postinjection of cypate-GRD): unable to displace
- blocking of Cyp-GRD uptake in the tumor by co-injection (A549 tumor; 24 h post injection): blocked the uptake
- blocking of Cyp-GRD uptake in the tumor by co-injection (A549 tumor; 24 h post injection, listed as cyclo(RGDfV)): significantly blocked
- blocking of cypate-GRD uptake / internalization in A549 cells (A549 cells [1]; pretreatment 15 min at 37° C., antibodies 10 μg/ml): blocked the uptake

Compound: CC1(C)C(/C=C/C=C/C=C/C=C2/N(CCC(=O)NCC(=O)N[C@@H](CCCNC(=N)N)C(=O)NCC(=O)N[C@@H](CC(=O)O)C(=O)N[C@@H](CO)C(=O)N3CCC[C@H]3C(=O)N[C@@H](CCCCN)C(=O)O)c3ccc4ccccc4c3C2(C)C)=[N+](CCC(=O)O)c2ccc3ccccc3c21 [Cyp-RGD, Cypate-GRGDSPK]
- ^abεmax [2]: 213,726 cm^−1Mol^−1
- ^abλmax [2]: 789 nm
- ^emλmax [2]: 811 nm
- IC50 [3]: 328 nM
- uptake / retention in A549 tumor (A549 tumor; 0.3 μmol per kg via lateral tail vein, fluorescence imaging): preferentially localized
- accumulation / retention in nontarget tissues (A549 tumor; 24 h post injection): primarily retained in the liver and the kidneys
- tumor uptake compared among the cypate-peptide conjugates (A549 tumor; 24 h post injection): low
- internalization / fluorescence intensity in cells (A549 cells [1]; 1 μM, 4 h, 37° C.): higher intensity than the linear GRD compound
- cytotoxicity (CyQuant), longer treatment (A549 cells [4]): some cytotoxicity
